Assay results reported in patent publication EP3046573B1, “AMYLIN ANALOGUES” (Zealand Pharma A/S, priority 2013, dated 2015).
Like-named read-outs stand apart in the source and are kept apart here. Numbered stars: 1 amine (or outer) side, 2 acyl side, 3 side chain; on linkers, the order of the positions; unused ones are H or OH. Bridge positions count the residues as written; N and C are the ends. Square brackets hold non-standard residues; d marks the D form. Peptide text beside a SMILES is read from it. * marks the point of attachment. C20 diacid = O=C(O)CCCCCCCCCCCCCCCCCCC(=O)*; γGlu = O=C(O)[C@H](CCC(=O)[*:2])N[*:1]; NMeI = CC[C@H](C)[C@H](NC)C(=O)O; Sar = CNCC(=O)O

Assays:
[1] = target: T1, human calcitonin receptor (hCTR2) (Homo sapiens, UniProt P30988); experiment: hCTR2 assay: induction of cAMP (AlphaScreen cAMP Assay kit) in COS7 cells expressing hCTR2; type: cell-based
T1 construct: expressed in transfected cells
T1 sequence (P30988 25-474): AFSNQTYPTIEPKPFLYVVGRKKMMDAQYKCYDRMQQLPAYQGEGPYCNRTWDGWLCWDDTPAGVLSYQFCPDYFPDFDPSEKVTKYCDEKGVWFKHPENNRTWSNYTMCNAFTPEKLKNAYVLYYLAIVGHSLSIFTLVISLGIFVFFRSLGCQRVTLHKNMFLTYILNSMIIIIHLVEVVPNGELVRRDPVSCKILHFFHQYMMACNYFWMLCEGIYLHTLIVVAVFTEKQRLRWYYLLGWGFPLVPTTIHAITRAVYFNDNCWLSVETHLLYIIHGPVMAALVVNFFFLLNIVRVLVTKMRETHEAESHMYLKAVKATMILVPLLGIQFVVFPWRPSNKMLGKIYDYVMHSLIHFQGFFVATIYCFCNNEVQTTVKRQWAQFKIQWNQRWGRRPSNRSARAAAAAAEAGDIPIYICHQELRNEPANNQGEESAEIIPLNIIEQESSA
How it was run: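 Functional agonism is measured as cAMP accumulation in a COS7 line stably transfected with hCTR2, lacking endogenous RAMPs. Peptides act for 15 min at 37° C with IBMX present, and curves are fitted with a 4-parameter logistic model.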

[2] = Solubility assessment (turbidity absorbance at 325 nm); type: physicochemical; settings: stock 2 mg/ml diluted 1:1, ambient temperature (typically 25°C), n=1; for Solubility, Acetate buffer pH 4: 100 mM acetate buffer pH 4.0; for Solubility, Acetate buffer pH 5: 100 mM acetate buffer pH 5.0; for Solubility, Histidine buffer pH 6: 100 mM histidine buffer pH 6.0; for Solubility, Histidine buffer pH 7: 100 mM histidine buffer pH 7.0; for Solubility, Phosphate buffer pH 6: 100 mM phosphate buffer pH 6.0; for Solubility, Phosphate buffer pH 7: 100 mM phosphate buffer pH 7.0; for Solubility, Phosphate buffer pH 7.5: 100 mM phosphate buffer pH7.5
How it was run: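 Peptide stock (2 mg/ml, water pH 2.5) diluted 1:1 into 100 mM acetate (pH 4.0, 5.0), histidine (pH 6.0, 7.0) or phosphate (pH 6.0–7.5) buffer; absorbance at 325 nm read at about 25°C, n=1. A325 ≤ 0.02 taken as solubility ≥ 1 mg/ml.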

[3] = cAMP induction in COS7 cells expressing hCTR2, average of a minimum of 3 determinations, read-out: hCTR2 EC50

| EC50 [1, 3] [pM] | Solubility, Acetate buffer pH 4 [2] | Solubility, Acetate buffer pH 5 [2] | Solubility, Histidine buffer pH 6 [2] | Solubility, Histidine buffer pH 7 [2] | Solubility, Phosphate buffer pH 6 [2] | Solubility, Phosphate buffer pH 7 [2] | Solubility, Phosphate buffer pH 7.5 [2] | Structure (SMILES) | EC50 [1] [pM] |
| --- | --- | --- | --- | --- | --- | --- | --- | --- | --- |
| 130 | SS (SS indicates solubility ≥ 1mg/ml) | SS (SS indicates solubility ≥ 1mg/ml) | SS (SS indicates solubility ≥ 1mg/ml) | SS (SS indicates solubility ≥ 1mg/ml) | SS (SS indicates solubility ≥ 1mg/ml) | SS (SS indicates solubility ≥ 1mg/ml) | SS (SS indicates solubility ≥ 1mg/ml) | CC[C@H](C)[C@@H](C(=O)N[C@@H](CC(C)C)C(=O)N[C@H](CO)C(=O)N[C@@H](CO)C(=O)N[C@H](C(=O)N[C@@H](CC(N)=O)C(=O)N[C@H](C(=O)NCC(=O)N[C@@H](CO)C(=O)N[C@@H](CC(N)=O)C(=O)N[C@H](C(=O)N1CCC[C@H]1C(N)=O)[C@@H](C)O)C(C)C)[C@@H](C)O)N(C)C(=O)CN(C)C(=O)[C@H](Cc1ccccc1)NC(=O)[C@H](CC(N)=O)NC(=O)[C@H](CC(N)=O)NC(=O)[C@H](CO)NC(=O)[C@H](CO)NC(=O)[C@H](Cc1c[nH]cn1)NC(=O)[C@H](Cc1c[nH]cn1)NC(=O)[C@H](CC(C)C)NC(=O)[C@H](Cc1ccccc1)NC(=O)[C@H](CCC(=O)O)NC(=O)[C@H](C)NC(=O)[C@H](CC(C)C)NC(=O)[C@H](CCCNC(=N)N)NC(=O)[C@H](CCC(N)=O)NC(=O)[C@@H](NC(=O)[C@H](C)NC(=O)[C@@H]1CSSC[C@H](NC(=O)[C@H](CCCNC(=N)N)NC(=O)CC[C@H](NC(=O)CCCCCCCCCCCCCCCCCCC(=O)O)C(=O)O)C(=O)N[C@@H](CC(N)=O)C(=O)N[C@@H]([C@@H](C)O)C(=O)N[C@@H](C)C(=O)N[C@@H]([C@@H](C)O)C(=O)N1)[C@@H](C)O [Compound 24, [19CD]-isoGlu-RC()NTATC()ATQRLAEFLHHSSNNF-Gly(Me)-Ile(Me)-L-DSer-STNVGSNTP-NH2] ({C20 diacid-γGlu}-RCNTATCATQRLAEFLHHSSNNF[Sar][NMeI]L[dS]STNVGSNTP-NH2; disulfide 2-7) | – |
| 110 | SS (SS indicates solubility ≥ 1mg/ml) | SS (SS indicates solubility ≥ 1mg/ml) | SS (SS indicates solubility ≥ 1mg/ml) | SS (SS indicates solubility ≥ 1mg/ml) | SS (SS indicates solubility ≥ 1mg/ml) | SS (SS indicates solubility ≥ 1mg/ml) | SS (SS indicates solubility ≥ 1mg/ml) | CC[C@H](C)[C@@H](C(=O)N[C@@H](CC(C)C)C(=O)N[C@@H](CO)C(=O)N[C@H](C(=O)N[C@@H](CC(N)=O)C(=O)N[C@H](C(=O)NCC(=O)N[C@@H](CO)C(=O)N[C@@H](CC(N)=O)C(=O)N[C@H](C(=O)N1CCC[C@H]1C(N)=O)[C@@H](C)O)C(C)C)[C@@H](C)O)N(C)C(=O)CN(C)C(=O)[C@H](Cc1ccccc1)NC(=O)[C@H](CC(N)=O)NC(=O)[C@H](CC(N)=O)NC(=O)[C@H](CO)NC(=O)[C@H](CO)NC(=O)[C@H](Cc1c[nH]cn1)NC(=O)[C@H](Cc1c[nH]cn1)NC(=O)[C@H](CC(C)C)NC(=O)[C@H](Cc1ccccc1)NC(=O)[C@H](CCC(=O)O)NC(=O)[C@H](C)NC(=O)[C@H](CC(C)C)NC(=O)[C@H](CCCNC(=N)N)NC(=O)[C@H](CCC(N)=O)NC(=O)[C@@H](NC(=O)[C@H](C)NC(=O)[C@@H]1CSSC[C@H](NC(=O)[C@H](CCCNC(=N)N)NC(=O)CC[C@H](NC(=O)CCCCCCCCCCCCCCCCCCC(=O)O)C(=O)O)C(=O)N[C@@H](CC(N)=O)C(=O)N[C@@H]([C@@H](C)O)C(=O)N[C@@H](C)C(=O)N[C@@H]([C@@H](C)O)C(=O)N1)[C@@H](C)O [Compound 26, [19CD]-isoGlu-RC()NTATC()ATQRLAEFLHHSSNNF-Gly(Me)-Ile(Me)-LSTNVGSNTP-NH2] ({C20 diacid-γGlu}-RCNTATCATQRLAEFLHHSSNNF[Sar][NMeI]LSTNVGSNTP-NH2; disulfide 2-7) | – |

| Structure (SMILES) | EC50 [1, 3] [pM] | Solubility, Acetate buffer pH 4 [2] | Solubility, Acetate buffer pH 5 [2] | Solubility, Histidine buffer pH 6 [2] | Solubility, Histidine buffer pH 7 [2] | Solubility, Phosphate buffer pH 6 [2] | Solubility, Phosphate buffer pH 7 [2] | Solubility, Phosphate buffer pH 7.5 [2] | EC50 [1] [pM] |
| --- | --- | --- | --- | --- | --- | --- | --- | --- | --- |
| CC[C@H](C)[C@@H](C(=O)N[C@@H](CC(C)C)C(=O)N[C@@H](CO)C(=O)N[C@H](C(=O)N[C@@H](CC(N)=O)C(=O)N[C@H](C(=O)NCC(=O)N[C@@H](CO)C(=O)N[C@@H](CC(N)=O)C(=O)N[C@H](C(=O)N1CCC[C@H]1C(N)=O)[C@@H](C)O)C(C)C)[C@@H](C)O)N(C)C(=O)[C@H](C)NC(=O)CN(C)C(=O)[C@H](Cc1ccccc1)NC(=O)[C@H](CC(N)=O)NC(=O)[C@H](CC(N)=O)NC(=O)[C@H](CO)NC(=O)[C@H](CO)NC(=O)[C@H](Cc1c[nH]cn1)NC(=O)[C@H](Cc1c[nH]cn1)NC(=O)[C@H](CC(C)C)NC(=O)[C@H](Cc1ccccc1)NC(=O)[C@H](CCC(=O)O)NC(=O)[C@H](C)NC(=O)[C@H](CC(C)C)NC(=O)[C@H](CCCNC(=N)N)NC(=O)[C@H](CCC(N)=O)NC(=O)[C@@H](NC(=O)[C@H](C)NC(=O)[C@@H]1CSSC[C@H](NC(=O)[C@H](CCCNC(=N)N)NC(=O)CC[C@H](NC(=O)CCCCCCCCCCCCCCCCCCC(=O)O)C(=O)O)C(=O)N[C@@H](CC(N)=O)C(=O)N[C@@H]([C@@H](C)O)C(=O)N[C@@H](C)C(=O)N[C@@H]([C@@H](C)O)C(=O)N1)[C@@H](C)O [Compound 25, [19CD]-isoGlu-RC()NTATC()ATQRLAEFLHHSSNNF-Gly(Me)-A-Ile(Me)-LSTNVGSNTP-NH2] ({C20 diacid-γGlu}-RCNTATCATQRLAEFLHHSSNNF[Sar]A[NMeI]LSTNVGSNTP-NH2; disulfide 2-7) | – | SS (SS indicates solubility ≥ 1mg/ml) | SS (SS indicates solubility ≥ 1mg/ml) | SS (SS indicates solubility ≥ 1mg/ml) | SS (SS indicates solubility ≥ 1mg/ml) | SS (SS indicates solubility ≥ 1mg/ml) | SS (SS indicates solubility ≥ 1mg/ml) | SS (SS indicates solubility ≥ 1mg/ml) | 100 |
